# According to patent US7115584B2, “HIV-1 mutations selected for by β-2′,3′-didehydro-2′,3′-dideoxy-5-fluorocytidine” (priority 1999, dated 2006):
# Like-named read-outs stand apart in the source and are kept apart here.
# What was measured:
# [1] = system: acutely infected human PBM cells; assay: Median effect and combination index analysis, alone and in combination; assay type: cell-based; conditions: PBMC, 144 h
# HIV-1LAV = assay: Effect against HIV-1 and cloned viruses in human PBM cells; assay type: cell-based
# M184VPITT = assay: as above; assay type: cell-based
# [2] = system: 4X AZTPITT (67N, 70R, 215Y, 219Q); assay: as above; assay type: cell-based
# M184V/T215YPITT = assay: as above; assay type: cell-based
# 215/41PITT = assay: as above; assay type: cell-based
# [3] = system: G2-2PITT (103N, 41L, 184V, 210W, others); assay: Effect against cloned viruses, in MT-2 cells; assay type: cell-based, HIV-1; design: unit not given beside the values
# xxBRUPITT = assay: Effect against HIV-1 and cloned viruses in human PBM cells; assay type: cell-based
# T215YPITT = assay: as above; assay type: cell-based
# [4] = EC50 resistant virus vs HIV-1LAV or xxBRUPITT, listed as β-D-D4FC
structure (smiles),measurement,setting,value
"Cc1cn([C@H]2C[C@H](N=[N+]=[N-])[C@@H](CO)O2)c(=O)[nH]c1=O [AZT, 3′-azido-3′-deoxythymidine]",EC90,[1],32 nM
"Nc1nc(=O)n([C@H]2C=C[C@@H](CO)O2)cc1F [D-D4FC, β-2′,3′-didehydro-2′,3′-dideoxy-5-fluorocytidine]",EC50,HIV-1LAV; listed as β-D-D4FC,220 nM
same,EC90,HIV-1LAV; listed as β-D-D4FC,1320 nM
same,FI50,M184VPITT; [4],2
same,FI50,"[2]; 4X AZTPITT, EC50 resistant virus vs HIV-1LAV or xxBRUPITT",1
same,FI90,"[2]; 4X AZTPITT, EC90 resistant virus vs HIV-1LAV or xxBRUPITT",1
same,EC90,"[2]; human PBM cells, 4X AZTPITT (67N, 70R, 215Y, 219Q), listed as β-D-D4FC",460 nM
same,FI50,M184V/T215YPITT; [4],1
same,FI90,"M184V/T215YPITT; EC90 resistant virus vs HIV-1LAV or xxBRUPITT, listed as β-D-D4FC",1
same,FI90,215/41PITT; EC90 resistant virus vs HIV-1LAV or xxBRUPITT,1
same,FI50,[3]; listed as β-D-D4FC,0.2
"Nc1nc(=O)n([C@H]2C=C[C@@H](CO)O2)cc1F [β-L-D4FC, β-2′,3′-didehydro-2′,3′-dideoxy-5-fluorocytidine]",EC50,HIV-1LAV,34 nM
same,EC90,HIV-1LAV,160 nM
same,EC50,xxBRUPITT,25 nM
same,EC90,xxBRUPITT,88 nM
same,EC50,M184VPITT; human PBM cells,3660 nM
same,EC90,M184VPITT; human PBM cells,14300 nM
same,EC50,T215YPITT,4.7 nM
same,EC90,T215YPITT,30 nM
same,EC50,M184V/T215YPITT; human PBM cells,8300 nM
same,EC90,M184V/T215YPITT; human PBM cells,74600 nM
same,EC50,215/41PITT; human PBM cells,18 nM
same,EC90,215/41PITT; human PBM cells,66 nM
same,FI50,[3],>47
